Experimental data as given in ChEMBL document CHEMBL3085700 (J Med Chem, 2013).
The source made the active and inactive calls. The rule behind the calls is not given here.

Assays:
[1] = target: T1, Fatty-acid amide hydrolase 1 (Homo sapiens, UniProt O00519); experiment: Inhibition of human recombinant FAAH overexpressed in African green monkey COS7 cells using [3H]-anandamide as substrate preincubated for 10 mins before substrate addition measured after 10 mins by liquid scintillation counting analysis; format: cell-based, COS-7
T1 sequence (O00519 whole entry): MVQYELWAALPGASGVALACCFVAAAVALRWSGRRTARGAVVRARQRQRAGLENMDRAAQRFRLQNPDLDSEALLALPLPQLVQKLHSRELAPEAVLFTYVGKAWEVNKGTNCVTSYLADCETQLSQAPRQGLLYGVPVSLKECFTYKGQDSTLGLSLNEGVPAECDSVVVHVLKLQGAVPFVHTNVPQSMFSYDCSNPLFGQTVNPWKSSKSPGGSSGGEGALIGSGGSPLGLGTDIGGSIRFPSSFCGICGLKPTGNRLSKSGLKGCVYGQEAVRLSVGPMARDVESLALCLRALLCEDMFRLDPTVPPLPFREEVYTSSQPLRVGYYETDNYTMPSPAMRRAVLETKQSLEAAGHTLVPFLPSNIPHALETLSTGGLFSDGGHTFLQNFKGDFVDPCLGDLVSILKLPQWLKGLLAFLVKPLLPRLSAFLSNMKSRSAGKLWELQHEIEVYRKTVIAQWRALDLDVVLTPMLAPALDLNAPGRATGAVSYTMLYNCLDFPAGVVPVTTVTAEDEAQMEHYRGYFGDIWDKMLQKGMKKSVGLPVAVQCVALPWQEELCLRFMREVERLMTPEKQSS

[2] = target: T2, Lysophosphatidylserine lipase ABHD12 (Homo sapiens) (UniProt Q8N2K0); experiment: Inhibition of human ABHD12 overexpressed in HEK293 cells assessed as 2-AG hydrolysis at 1 uM by fluorescent glycerol assay; format: cell-based
T2 sequence (whole entry): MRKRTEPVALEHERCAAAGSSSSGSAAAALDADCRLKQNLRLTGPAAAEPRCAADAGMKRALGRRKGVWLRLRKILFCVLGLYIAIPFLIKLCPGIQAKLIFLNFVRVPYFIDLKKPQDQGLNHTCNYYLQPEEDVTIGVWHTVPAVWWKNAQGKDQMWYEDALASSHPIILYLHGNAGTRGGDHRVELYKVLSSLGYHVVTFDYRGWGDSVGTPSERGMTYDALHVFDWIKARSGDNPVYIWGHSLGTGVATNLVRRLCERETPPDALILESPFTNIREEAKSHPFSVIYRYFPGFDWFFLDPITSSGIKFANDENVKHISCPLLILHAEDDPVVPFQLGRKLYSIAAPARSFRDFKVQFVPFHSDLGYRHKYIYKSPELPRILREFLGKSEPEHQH

[3] = target: T3, Monoacylglycerol lipase ABHD6 (Homo sapiens) (UniProt Q9BV23); experiment: Inhibition of human ABHD6 overexpressed in HEK293 cells assessed as 2-AG hydrolysis at 1 uM by fluorescent glycerol assay; format: cell-based
T3 sequence (whole entry): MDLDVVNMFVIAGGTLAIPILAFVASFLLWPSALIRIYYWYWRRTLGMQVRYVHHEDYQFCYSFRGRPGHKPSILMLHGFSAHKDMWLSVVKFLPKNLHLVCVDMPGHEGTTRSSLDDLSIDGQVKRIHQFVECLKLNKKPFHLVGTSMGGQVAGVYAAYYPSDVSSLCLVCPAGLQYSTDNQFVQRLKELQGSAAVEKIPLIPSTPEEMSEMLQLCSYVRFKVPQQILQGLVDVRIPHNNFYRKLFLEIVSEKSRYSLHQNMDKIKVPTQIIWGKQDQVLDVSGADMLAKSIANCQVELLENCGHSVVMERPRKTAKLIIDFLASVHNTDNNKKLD

[4] = target: T4, Monoglyceride lipase (Homo sapiens) (UniProt Q99685); experiment: Inhibition of human recombinant MAGL overexpressed in HEK cells using 2-AG as substrate at 10 uM preincubated for 10 mins before substrate addition measured after 10 mins by HPLC analysis relative to control; format: cell-based; conditions: HEK293
T4 sequence (whole entry): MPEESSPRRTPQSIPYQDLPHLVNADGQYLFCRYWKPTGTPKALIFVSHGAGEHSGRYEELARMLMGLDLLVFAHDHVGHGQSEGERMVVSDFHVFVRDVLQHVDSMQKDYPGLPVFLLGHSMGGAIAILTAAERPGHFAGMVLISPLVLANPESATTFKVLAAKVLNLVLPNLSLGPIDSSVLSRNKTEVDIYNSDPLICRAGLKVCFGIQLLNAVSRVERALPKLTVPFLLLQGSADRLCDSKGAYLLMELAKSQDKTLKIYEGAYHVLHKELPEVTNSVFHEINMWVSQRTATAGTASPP

Monoglyceride lipase = target: T5, Monoglyceride lipase (Homo sapiens, UniProt Q99685); experiment: Inhibition of human recombinant MAGL overexpressed in HEK cells using 2-AG as substrate preincubated for 10 mins before substrate addition measured after 10 mins by HPLC analysis; format: cell-based, HEK293
T5 sequence (Q99685 whole entry): T4 sequence (whole entry)

[5] = target: T6, Fatty-acid amide hydrolase 1 (Homo sapiens) (UniProt O00519); experiment: Inhibition of human recombinant FAAH overexpressed in African green monkey COS7 cells using [3H]-anandamide as substrate at 10 uM preincubated for 10 mins before substrate addition measured after 10 mins by liquid scintillation counting analysis relative to control; format: cell-based; conditions: COS-7
T6 sequence (whole entry): T1 sequence (O00519 whole entry)

inhibition [2]	inhibition [3]	inhibition [4]	inhibition [5]	Structure (SMILES)	IC50 ([1]; read-out: IC50)	IC50 ([1]; read-out: pIC50 (converted))	IC50 (Monoglyceride lipase; read-out: IC50)	IC50 (Monoglyceride lipase; read-out: pIC50 (converted))
inactive	inactive	inactive		COc1nn(C(C)c2ccccc2)c(=O)o1 (stereo not drawn)	6 µM	6.03 µM		
inactive	inactive	inactive		COc1nn(Cc2ccccc2Oc2ccccc2)c(=O)o1	6.3 µM	6.31 µM		
inactive	inactive	32%	46%	COc1nn(Cc2cccc(-c3ccccc3)c2)c(=O)o1				
inactive	inactive	14%		COc1nn(C(C)c2cccc(Oc3ccccc3)c2)c(=O)o1 (stereo not drawn)	5.2 µM	5.25 µM		
inactive	inactive	15%		COc1nn(Cc2cccc(Oc3ccccc3)c2)c(=O)o1	0.98 µM	0.977 µM		
inactive	inactive	inactive	inactive	COc1nn(C(c2ccccc2)c2ccccc2)c(=O)o1				
inactive	inactive	inactive	inactive	COc1nn(Cc2ccccc2)c(=O)o1				

Structure (SMILES)	inhibition [2]	inhibition [3]	inhibition [4]	inhibition [5]	IC50 ([1]; read-out: IC50)	IC50 ([1]; read-out: pIC50 (converted))	IC50 (Monoglyceride lipase; read-out: IC50)	IC50 (Monoglyceride lipase; read-out: pIC50 (converted))
COc1nn([C@H](C)c2ccc(N(c3ccccc3)c3ccccc3)cc2)c(=O)o1	inactive	inactive			6.3 µM	6.17 µM	350 nM	339 nM
COc1nn(Cc2ccc(N(c3ccccc3)c3ccccc3)cc2)c(=O)o1	inactive	inactive			0.47 µM	0.457 µM	260 nM	
COc1nn(Cc2ccc(-c3ccccc3)cc2)c(=O)o1	inactive	inactive			0.16 µM	0.162 µM	1600 nM	
COc1nn(Cc2ccc(CC(C)C)cc2)c(=O)o1	inactive	inactive			0.091 µM	0.0891 µM	1300 nM	
